For assay [1], the target named is TYK2 JH2 domain (Homo sapiens (Human), UniProt P29597). Briefly: TYK2 JH2 NanoBRET assay. In kind it is binding. The following applies: Table 20, read-out: TYK2 IC50. Put shortly: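 Tracer displacement measured by BRET ratio (acceptor over donor) in live HEK293T cells transfected with a NanoLuc-tagged TYK2 JH2 construct; cells co-exposed to test compound and 0.5 µM final K10 tracer for 2 h before substrate/extracellular inhibitor addition.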
(BRET reads energy transfer from a luciferase to a nearby fluorophore.)

Assay [2] has as its target human JAK1 (Homo sapiens (Human), UniProt P23458). As to the kind of experiment: JAK1 TR-FRET kinase assay. It is filed as biochemical. The note with it: TR-FRET, JAK1 2.5 nM. In general terms: TR-FRET usually uses a lanthanide donor and a delayed reading to cut background.
For assay [3], the target named is human JAK2 (Homo sapiens (Human), UniProt O60674). Briefly: JAK2 TR-FRET kinase assay. In kind it is biochemical. The following applies: JAK2 0.025 nM.
Sequence of human JAK2 (O60674 whole entry): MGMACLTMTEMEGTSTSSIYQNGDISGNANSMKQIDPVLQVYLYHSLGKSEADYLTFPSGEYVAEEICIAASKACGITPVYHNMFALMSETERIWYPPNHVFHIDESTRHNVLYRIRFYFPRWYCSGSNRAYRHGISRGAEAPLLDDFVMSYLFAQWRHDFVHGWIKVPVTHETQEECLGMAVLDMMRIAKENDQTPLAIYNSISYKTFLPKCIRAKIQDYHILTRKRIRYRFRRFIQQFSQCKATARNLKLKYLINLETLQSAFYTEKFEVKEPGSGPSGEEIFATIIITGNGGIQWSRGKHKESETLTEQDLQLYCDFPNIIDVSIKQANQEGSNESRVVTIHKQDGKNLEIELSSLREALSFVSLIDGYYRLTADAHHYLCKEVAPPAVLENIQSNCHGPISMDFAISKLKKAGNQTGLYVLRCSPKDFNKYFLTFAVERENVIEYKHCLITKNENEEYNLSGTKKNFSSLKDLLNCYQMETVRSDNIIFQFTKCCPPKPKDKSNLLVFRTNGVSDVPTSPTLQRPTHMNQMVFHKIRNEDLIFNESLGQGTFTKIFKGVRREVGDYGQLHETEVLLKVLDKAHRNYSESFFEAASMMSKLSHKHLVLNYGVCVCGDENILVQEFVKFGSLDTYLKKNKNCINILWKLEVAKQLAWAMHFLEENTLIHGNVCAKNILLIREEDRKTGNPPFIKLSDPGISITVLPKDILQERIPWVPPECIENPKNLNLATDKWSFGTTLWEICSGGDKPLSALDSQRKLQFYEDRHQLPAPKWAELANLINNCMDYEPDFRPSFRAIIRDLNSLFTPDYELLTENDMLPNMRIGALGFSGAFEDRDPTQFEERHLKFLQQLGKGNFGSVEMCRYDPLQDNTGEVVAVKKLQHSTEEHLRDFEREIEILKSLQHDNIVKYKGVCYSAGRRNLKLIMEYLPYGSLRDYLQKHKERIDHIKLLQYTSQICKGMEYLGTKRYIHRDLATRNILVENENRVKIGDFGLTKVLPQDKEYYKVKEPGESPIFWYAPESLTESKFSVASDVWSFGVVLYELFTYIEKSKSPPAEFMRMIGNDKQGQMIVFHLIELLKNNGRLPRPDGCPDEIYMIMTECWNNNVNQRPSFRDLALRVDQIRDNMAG
Assay [4] addresses human JAK3 (Homo sapiens (Human), UniProt P52333). Briefly: JAK3 TR-FRET kinase assay. In kind it is biochemical. The following applies: JAK3 0.0125 nM.

Sequence of human JAK1 (P23458 whole entry): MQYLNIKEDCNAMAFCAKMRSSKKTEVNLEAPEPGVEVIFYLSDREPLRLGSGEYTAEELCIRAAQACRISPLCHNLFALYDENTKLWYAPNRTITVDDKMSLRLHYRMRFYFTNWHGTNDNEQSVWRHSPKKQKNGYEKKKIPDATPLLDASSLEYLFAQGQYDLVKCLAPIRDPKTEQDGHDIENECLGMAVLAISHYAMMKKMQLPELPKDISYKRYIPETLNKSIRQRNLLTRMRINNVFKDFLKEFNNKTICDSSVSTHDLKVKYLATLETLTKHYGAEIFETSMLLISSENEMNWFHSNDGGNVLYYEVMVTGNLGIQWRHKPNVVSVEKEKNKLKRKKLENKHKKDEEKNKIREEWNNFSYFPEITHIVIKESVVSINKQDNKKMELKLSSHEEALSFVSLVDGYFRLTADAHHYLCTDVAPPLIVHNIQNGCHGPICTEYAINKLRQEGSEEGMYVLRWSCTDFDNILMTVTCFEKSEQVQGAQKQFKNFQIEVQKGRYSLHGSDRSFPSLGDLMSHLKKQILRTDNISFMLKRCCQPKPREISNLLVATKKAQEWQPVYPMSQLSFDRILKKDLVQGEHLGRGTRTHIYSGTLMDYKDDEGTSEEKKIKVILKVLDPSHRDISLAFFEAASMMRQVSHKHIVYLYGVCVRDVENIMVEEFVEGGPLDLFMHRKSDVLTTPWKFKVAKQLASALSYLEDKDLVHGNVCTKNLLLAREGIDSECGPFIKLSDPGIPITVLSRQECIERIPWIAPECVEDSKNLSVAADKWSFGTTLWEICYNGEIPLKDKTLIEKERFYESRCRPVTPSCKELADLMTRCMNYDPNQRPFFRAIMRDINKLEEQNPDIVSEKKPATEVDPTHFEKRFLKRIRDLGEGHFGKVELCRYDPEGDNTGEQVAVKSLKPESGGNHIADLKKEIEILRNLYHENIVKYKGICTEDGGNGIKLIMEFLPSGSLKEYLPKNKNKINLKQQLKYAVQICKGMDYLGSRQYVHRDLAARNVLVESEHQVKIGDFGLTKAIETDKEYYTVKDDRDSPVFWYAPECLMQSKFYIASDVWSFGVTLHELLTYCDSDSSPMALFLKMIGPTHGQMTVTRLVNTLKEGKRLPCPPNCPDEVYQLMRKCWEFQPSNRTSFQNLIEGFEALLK
Sequence of human JAK3 (P52333 whole entry): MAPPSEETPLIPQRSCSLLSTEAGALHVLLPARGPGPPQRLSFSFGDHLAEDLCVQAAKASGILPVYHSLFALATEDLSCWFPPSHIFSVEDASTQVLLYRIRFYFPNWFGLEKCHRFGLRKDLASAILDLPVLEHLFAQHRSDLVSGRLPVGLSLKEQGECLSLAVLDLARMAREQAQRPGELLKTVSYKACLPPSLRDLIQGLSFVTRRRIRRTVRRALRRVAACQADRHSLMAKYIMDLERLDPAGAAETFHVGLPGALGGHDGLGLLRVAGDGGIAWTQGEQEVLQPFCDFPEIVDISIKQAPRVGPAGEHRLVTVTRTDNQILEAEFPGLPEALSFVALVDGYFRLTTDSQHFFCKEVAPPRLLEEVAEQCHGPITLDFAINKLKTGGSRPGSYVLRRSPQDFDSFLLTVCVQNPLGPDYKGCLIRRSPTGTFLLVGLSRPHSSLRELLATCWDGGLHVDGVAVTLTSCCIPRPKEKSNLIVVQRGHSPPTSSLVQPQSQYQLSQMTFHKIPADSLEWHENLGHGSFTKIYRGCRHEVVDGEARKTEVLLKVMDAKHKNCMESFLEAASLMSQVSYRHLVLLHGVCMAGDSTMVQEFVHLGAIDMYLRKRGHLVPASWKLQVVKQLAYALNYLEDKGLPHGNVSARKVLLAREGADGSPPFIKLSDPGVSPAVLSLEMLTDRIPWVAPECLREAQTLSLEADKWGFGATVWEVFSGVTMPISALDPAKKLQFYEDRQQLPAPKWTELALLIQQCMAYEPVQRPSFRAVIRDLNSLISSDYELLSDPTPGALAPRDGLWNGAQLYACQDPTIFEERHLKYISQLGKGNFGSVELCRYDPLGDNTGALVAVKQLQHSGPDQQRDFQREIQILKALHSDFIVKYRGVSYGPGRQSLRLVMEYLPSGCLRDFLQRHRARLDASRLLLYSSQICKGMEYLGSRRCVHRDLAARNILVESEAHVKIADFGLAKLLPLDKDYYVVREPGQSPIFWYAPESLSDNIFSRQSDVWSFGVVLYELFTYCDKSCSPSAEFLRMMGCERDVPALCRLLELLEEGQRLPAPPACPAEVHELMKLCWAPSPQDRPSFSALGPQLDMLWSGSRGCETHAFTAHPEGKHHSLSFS
Sequence of TYK2 JH2 domain (P29597 589-875): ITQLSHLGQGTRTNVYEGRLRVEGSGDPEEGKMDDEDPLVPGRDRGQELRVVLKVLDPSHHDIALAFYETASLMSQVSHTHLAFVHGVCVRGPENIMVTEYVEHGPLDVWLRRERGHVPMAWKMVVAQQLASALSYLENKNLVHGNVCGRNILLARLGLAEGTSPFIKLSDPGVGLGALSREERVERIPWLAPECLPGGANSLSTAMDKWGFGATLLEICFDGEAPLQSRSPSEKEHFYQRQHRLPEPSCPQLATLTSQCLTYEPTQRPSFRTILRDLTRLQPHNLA

Usually IC50 stands for the concentration at which inhibition is half-maximal. Consider `CCC(=O)c1cnc(NC(=O)C2CC2)cc1Nc1cc(CO)cc(-c2ncn(C)n2)c1OC` [Compound 25D], for which the IC50 in assay [1] was 0.05 to 0.5 µM; in assay [2], not below 0.5 µM; in assay [3], not below 0.5 µM; in assay [4], not below 0.5 µM.
Consider `CCC(=O)c1cnc(NC(=O)C2CC2)cc1Nc1cc(COC)cc(-c2ncn(C)n2)c1OC` [Compound 25E], for which the IC50 in assay [1] is 0.05 to 0.5 µM; in assay [2], not below 0.5 µM; in assay [3], not below 0.5 µM; in assay [4] it was not below 0.5 µM.
For `CCC(=O)c1cnc(NC(=O)C2CC2)cc1Nc1cc(F)cc(-c2ncn(CCO)n2)c1OC` [Compound 25F], the IC50 in assay [1] is 0.05 to 0.5 µM; in assay [2], not below 0.5 µM; in assay [3] it was not below 0.5 µM; in assay [4], not below 0.5 µM.
Take `CCC(=O)c1cnc(NC2=NN(C(=O)C3CC3)CC2)cc1Nc1cccc(-c2ncn(C)n2)c1OC` [Compound 26A, 1-(6-((1-(cyclopropanecarbonyl)-4,5-dihydro-1H-pyrazol-3-yl)amino)-4-((2-methoxy-3-(1-methyl-1H-1,2,4-triazol-3-yl)phenyl)amino)pyridin-3-yl)propan-1-one]: the IC50 was 0.005 to 0.05 µM in assay [1], not below 0.5 µM in assay [2], not below 0.5 µM in assay [3] and not below 0.5 µM in assay [4].
With `COc1c(Nc2cc(Nc3ccc(CS(C)(=O)=O)cn3)ncc2C(=O)C2CC2)cccc1-c1ncn(C)n1` [Compound 130], the IC50 was less than 0.005 µM in assay [1], not below 0.5 µM in assay [2], not below 0.5 µM in assay [3] and not below 0.5 µM in assay [4].
For `CCC(=O)c1cnc(Nc2ccnc(OCCO)n2)cc1Nc1cccc(-c2ncn(C)n2)c1OC` [Compound 180], the IC50 is less than 0.005 µM in assay [1], not below 0.5 µM in assay [2], not below 0.5 µM in assay [3] and not below 0.5 µM in assay [4].
As for `CCC(=O)c1cnc(Nc2ccn([C@H]3C[C@H](C#N)C3)n2)cc1Nc1cccc(-c2ncn(C)n2)c1OC` [Compound 210], the IC50 was 0.005 to 0.05 µM in assay [1], not below 0.5 µM in assay [2], not below 0.5 µM in assay [3] and not below 0.5 µM in assay [4].
As to `CCC(=O)c1cnc(Nc2cnc(O[C@H]3CN[C@@H](C(F)F)C3)cn2)cc1Nc1cccc(-c2ncn(C)n2)c1OC` [Compound 18000], the IC50 is 0.005 to 0.05 µM in assay [1], not below 0.5 µM in assay [2], not below 0.5 µM in assay [3] and not below 0.5 µM in assay [4].
